# Reference: ChEMBL document CHEMBL1201862, “PubChem BioAssay data set” (2004)
#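 Cultured in 96-well plates, cells were exposed to test compound for 48 hours across five concentrations. At the GI50, growth is halved.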 The source made the active and inactive calls. Rule as the data show it: active = GI50 up to about 1.1 µM and inactive = higher.
# Assays:
# Assay in all cases: growth of human tumour cells (NCI), 48 h
# [1] = test system: SR
# [2] = test system: SK-MEL-2
# [3] = test system: DU-145
# [4] = test system: SW-620
# [5] = test system: SF-539
# [6] = test system: MDA-N
# [7] = test system: HCT-116
# [8] = test system: RXF 393
# [9] = test system: OVCAR-8
# [10] = test system: MDA-MB-435
# [11] = test system: HOP-62
# [12] = test system: NCI-H226
# [13] = test system: HL-60
# [14] = test system: UACC-257
# [15] = test system: SF-295
# [16] = test system: U-251
# [17] = test system: PC-3
# [18] = test system: COLO 205
SMILES,GI50 [1],GI50 [2],GI50 [3],GI50 [4],GI50 [5],GI50 [6],GI50 [7],GI50 [8],GI50 [9],GI50 [10],GI50 [11],GI50 [12],GI50 [13],GI50 [14],GI50 [15],GI50 [16],GI50 [17],GI50 [18]
C=C1C(=O)[C@@]23CC[C@@H]4[C@@]5(C)CCC[C@@]4(OC5=O)[C@@]2(C)CC[C@@H]1C3,0.955 µM (active),2.13 µM (inactive),3.78 µM (inactive),0.667 µM (active),2.12 µM (inactive),1.87 µM (inactive),1.13 µM (inactive),1.01 µM (active),2.3 µM (inactive),1.83 µM (inactive),2.84 µM (inactive),2.08 µM (inactive),0.484 µM (active),1.49 µM (inactive),5.06 µM (inactive),1.97 µM (inactive),1.76 µM (inactive),2.11 µM (inactive)
C/C(=N\Nc1cc(CN2CCCC2)c(-c2ccc(Cl)cc2)nn1)C(=O)O,> 100 µM (inactive),> 100 µM (inactive),> 100 µM (inactive),> 100 µM (inactive),> 100 µM (inactive),> 100 µM (inactive),> 100 µM (inactive),> 100 µM (inactive),> 100 µM (inactive),> 100 µM (inactive),> 100 µM (inactive),> 100 µM (inactive),> 100 µM (inactive),> 100 µM (inactive),> 100 µM (inactive),> 100 µM (inactive),> 100 µM (inactive),> 100 µM (inactive)
CC1(C)OC2[C@@H](CO[C@@]3([C@@H](O)CCO)OC(C)(C)O[C@@H]23)O1 (stereo not given in full),> 100 µM (inactive),> 100 µM (inactive),> 100 µM (inactive),> 100 µM (inactive),> 100 µM (inactive),> 100 µM (inactive),> 100 µM (inactive),> 100 µM (inactive),> 100 µM (inactive),> 100 µM (inactive),> 100 µM (inactive),> 100 µM (inactive),> 100 µM (inactive),> 100 µM (inactive),> 100 µM (inactive),> 100 µM (inactive),> 100 µM (inactive),> 100 µM (inactive)
c1ccc(COC[C@H]2C3OCC([C@H](OCc4ccccc4)[C@H]3OCc3ccccc3)N2Cc2ccccc2)cc1 (stereo not given in full),26.8 µM (inactive),> 49.2 µM (inactive),> 48.2 µM (inactive),> 57 µM (inactive),> 59 µM (inactive),> 53.2 µM (inactive),23.5 µM (inactive),> 100 µM (inactive),> 50 µM (inactive),> 55.2 µM (inactive),> 55.2 µM (inactive),17.7 µM (inactive),8.41 µM (inactive),49 µM (inactive),> 51.2 µM (inactive),26.2 µM (inactive),20.2 µM (inactive),> 57 µM (inactive)
COc1ccccc1OC(=O)/C=C/c1ccccc1,> 100 µM (inactive),> 100 µM (inactive),> 100 µM (inactive),> 100 µM (inactive),> 100 µM (inactive),> 100 µM (inactive),> 100 µM (inactive),> 100 µM (inactive),> 100 µM (inactive),> 100 µM (inactive),52.1 µM (inactive),> 100 µM (inactive),64.1 µM (inactive),35.8 µM (inactive),40.2 µM (inactive),> 100 µM (inactive),> 100 µM (inactive),> 100 µM (inactive)
O=C(/C=C/c1ccccc1)CCN1CCCCC1,25.9 µM (inactive),> 100 µM (inactive),> 100 µM (inactive),18.8 µM (inactive),17.8 µM (inactive),24.9 µM (inactive),17.4 µM (inactive),24.2 µM (inactive),18.5 µM (inactive),28.2 µM (inactive),> 100 µM (inactive),> 100 µM (inactive),29.4 µM (inactive),37.4 µM (inactive),99.5 µM (inactive),23.6 µM (inactive),52.7 µM (inactive),18 µM (inactive)
O=C1CC(CC(=O)c2ccc(Br)cc2)C(O)=C1C(=O)c1ccc(Br)cc1 (stereo not given),44.3 µM (inactive),> 100 µM (inactive),> 100 µM (inactive),> 100 µM (inactive),56.4 µM (inactive),> 100 µM (inactive),54.2 µM (inactive),> 100 µM (inactive),99.8 µM (inactive),> 100 µM (inactive),94.4 µM (inactive),> 100 µM (inactive),> 100 µM (inactive),> 100 µM (inactive),53.1 µM (inactive),45.4 µM (inactive),98.2 µM (inactive),> 100 µM (inactive)
O=c1c2cnccc2cc2c3ccccc3ccn12,2.03 µM (inactive),> 100 µM (inactive),> 100 µM (inactive),49.8 µM (inactive),> 100 µM (inactive),> 100 µM (inactive),31.8 µM (inactive),> 100 µM (inactive),11.6 µM (inactive),97.3 µM (inactive),> 100 µM (inactive),> 100 µM (inactive),17.7 µM (inactive),> 100 µM (inactive),> 100 µM (inactive),68.4 µM (inactive),77.8 µM (inactive),63.2 µM (inactive)
COc1nc2ncc([C@@H](O)[C@H](O)CO)nc2c(=O)n1C,> 100 µM (inactive),> 100 µM (inactive),> 100 µM (inactive),> 100 µM (inactive),> 100 µM (inactive),> 100 µM (inactive),> 100 µM (inactive),> 100 µM (inactive),> 100 µM (inactive),> 100 µM (inactive),> 100 µM (inactive),> 100 µM (inactive),> 100 µM (inactive),> 100 µM (inactive),> 100 µM (inactive),> 100 µM (inactive),> 100 µM (inactive),> 100 µM (inactive)
O=C(OCCN=c1c2ccccc2ccc2ccccc12)c1ccc([N+](=O)[O-])cc1,> 100 µM (inactive),> 100 µM (inactive),> 100 µM (inactive),> 100 µM (inactive),> 100 µM (inactive),> 100 µM (inactive),> 100 µM (inactive),> 100 µM (inactive),> 100 µM (inactive),> 100 µM (inactive),> 100 µM (inactive),> 100 µM (inactive),> 100 µM (inactive),> 100 µM (inactive),> 100 µM (inactive),> 100 µM (inactive),> 100 µM (inactive),> 100 µM (inactive)
O=C1C(NCCc2cc(Br)c(O)c(Br)c2)=CC(=O)c2ncccc21,1.87 µM (inactive),8.07 µM (inactive),3.66 µM (inactive),4.24 µM (inactive),2.37 µM (inactive),1.82 µM (inactive),3.71 µM (inactive),7.93 µM (inactive),3.85 µM (inactive),1.69 µM (inactive),3.28 µM (inactive),2.29 µM (inactive),2.32 µM (inactive),2.88 µM (inactive),2.34 µM (inactive),5.55 µM (inactive),20.9 µM (inactive),5.7 µM (inactive)
CC(C)(C)OC(=O)NNCC(O)COc1ccccc1 (stereo not given),> 100 µM (inactive),> 100 µM (inactive),> 100 µM (inactive),> 100 µM (inactive),> 100 µM (inactive),> 100 µM (inactive),> 100 µM (inactive),> 100 µM (inactive),> 100 µM (inactive),> 100 µM (inactive),> 100 µM (inactive),> 100 µM (inactive),0.0318 µM (active),> 100 µM (inactive),> 100 µM (inactive),> 100 µM (inactive),> 100 µM (inactive),> 100 µM (inactive)
O=C(Oc1cncc(Cl)c1)c1cc2ccccc2sc1=O,19.6 µM (inactive),24.7 µM (inactive),89.1 µM (inactive),35.2 µM (inactive),18.5 µM (inactive),78.2 µM (inactive),78.3 µM (inactive),23 µM (inactive),> 100 µM (inactive),29.5 µM (inactive),54.3 µM (inactive),22.4 µM (inactive),47.6 µM (inactive),> 100 µM (inactive),96.2 µM (inactive),49.8 µM (inactive),33 µM (inactive),49.9 µM (inactive)
Cc1ccccc1C(O)(c1nccn1C)c1nccn1C,> 100 µM (inactive),> 100 µM (inactive),> 100 µM (inactive),> 100 µM (inactive),> 100 µM (inactive),> 100 µM (inactive),> 100 µM (inactive),> 100 µM (inactive),> 100 µM (inactive),> 100 µM (inactive),> 100 µM (inactive),> 100 µM (inactive),> 100 µM (inactive),> 100 µM (inactive),> 100 µM (inactive),> 100 µM (inactive),> 100 µM (inactive),> 100 µM (inactive)
CCN(CC)CCC(=O)/C=C/c1ccccc1,3.41 µM (inactive),23.3 µM (inactive),22.5 µM (inactive),5.89 µM (inactive),19.9 µM (inactive),13.3 µM (inactive),7.87 µM (inactive),9.25 µM (inactive),19 µM (inactive),11 µM (inactive),20.3 µM (inactive),19.4 µM (inactive),2.55 µM (inactive),16.2 µM (inactive),18.8 µM (inactive),12 µM (inactive),12.8 µM (inactive),7.11 µM (inactive)
